Results: PubChem BioAssay (NCI)
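Following 48 hours of exposure in 96-well plates, responses at five concentrations were used to interpolate endpoints linearly. GI50 is the concentration that inhibits growth by half. TGI is the concentration that stops growth completely.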

Columns and labels:
Assay in all cases: inhibition of tumour cell growth, NCI panel, 48 h
786-0 renal = system: 786-0 renal
A498 renal = system: A498 renal
A549 NSCLC = system: A549 NSCLC
ACHN renal = system: ACHN renal
BT-549 breast = system: BT-549 breast
CAKI-1 renal = system: CAKI-1 renal
CCRF-CEM leukemia = system: CCRF-CEM leukemia
COLO 205 colon = system: COLO 205 colon
DU-145 prostate = system: DU-145 prostate
EKVX NSCLC = system: EKVX NSCLC
HCC-2998 colon = system: HCC-2998 colon
HCT-116 colon = system: HCT-116 colon
HCT-15 colon = system: HCT-15 colon
HL-60(TB) leukemia = system: HL-60(TB) leukemia
HOP-62 NSCLC = system: HOP-62 NSCLC
HOP-92 NSCLC = system: HOP-92 NSCLC
HS 578T breast = system: HS 578T breast
HT29 colon = system: HT29 colon
IGROV1 ovarian = system: IGROV1 ovarian
K-562 leukemia = system: K-562 leukemia
KM12 colon = system: KM12 colon
LOX IMVI melanoma = system: LOX IMVI melanoma
M14 melanoma = system: M14 melanoma
MALME-3M melanoma = system: MALME-3M melanoma
MCF7 breast = system: MCF7 breast
MDA-MB-231 breast = system: MDA-MB-231 breast
MDA-MB-435 = system: MDA-MB-435
MOLT-4 leukemia = system: MOLT-4 leukemia
NCI-H226 lung = system: NCI-H226 lung
NCI-H23 lung = system: NCI-H23 lung
NCI-H460 lung = system: NCI-H460 lung
NCI-H522 lung = system: NCI-H522 lung
NCI/ADR-RES ovarian = system: NCI/ADR-RES ovarian
OVCAR-3 ovarian = system: OVCAR-3 ovarian
OVCAR-4 ovarian = system: OVCAR-4 ovarian
OVCAR-5 ovarian = system: OVCAR-5 ovarian
OVCAR-8 ovarian = system: OVCAR-8 ovarian
PC-3 prostate = system: PC-3 prostate
RPMI-8226 leukemia = system: RPMI-8226 leukemia
RXF 393 renal = system: RXF 393 renal
SF-268 CNS = system: SF-268 CNS
SF-295 CNS = system: SF-295 CNS
SF-539 CNS = system: SF-539 CNS
SK-MEL-2 melanoma = system: SK-MEL-2 melanoma
SK-MEL-28 melanoma = system: SK-MEL-28 melanoma
SK-MEL-5 melanoma = system: SK-MEL-5 melanoma
SK-OV-3 ovarian = system: SK-OV-3 ovarian
SN12C renal = system: SN12C renal
SNB-19 CNS = system: SNB-19 CNS
SNB-75 CNS = system: SNB-75 CNS
SR leukemia = system: SR leukemia
SW-620 colon = system: SW-620 colon
T-47D breast = system: T-47D breast
TK-10 renal = system: TK-10 renal
U251 CNS = system: U251 CNS
UACC-257 melanoma = system: UACC-257 melanoma
UO-31 renal = system: UO-31 renal

Question: What does the source list for CCOC(=O)c1cnc2c(C)cc(C)cc2c1NCCCN(C)C?
Answer: GI50 (786-0 renal): 4.91 µM; TGI (786-0 renal): 25.7 µM; GI50 (A498 renal): 2.85 µM; TGI (A498 renal): 14.9 µM; GI50 (A549 NSCLC): 5.29 µM; TGI (A549 NSCLC): > 100 µM; GI50 (ACHN renal): 3.09 µM; TGI (ACHN renal): 40.4 µM; GI50 (BT-549 breast): 11.5 µM; TGI (BT-549 breast): 39.9 µM; GI50 (CAKI-1 renal): 3.9 µM; TGI (CAKI-1 renal): > 100 µM; GI50 (CCRF-CEM leukemia): 13.6 µM; TGI (CCRF-CEM leukemia): 62.7 µM; GI50 (COLO 205 colon): 1.58 µM; TGI (COLO 205 colon): 3.55 µM; GI50 (DU-145 prostate): 3.8 µM; TGI (DU-145 prostate): 55.8 µM; GI50 (EKVX NSCLC): 4.22 µM; TGI (EKVX NSCLC): 35.6 µM; GI50 (HCC-2998 colon): 5.35 µM; TGI (HCC-2998 colon): 19.6 µM; GI50 (HCT-116 colon): 2.74 µM; TGI (HCT-116 colon): 21.4 µM; GI50 (HCT-15 colon): 3.69 µM; TGI (HCT-15 colon): 51.7 µM; GI50 (HL-60(TB) leukemia): 5.6 µM; TGI (HL-60(TB) leukemia): 57.1 µM; GI50 (HOP-62 NSCLC): 4.66 µM; TGI (HOP-62 NSCLC): 44.2 µM; GI50 (HOP-92 NSCLC): 2.08 µM; TGI (HOP-92 NSCLC): 12.5 µM; GI50 (HS 578T breast): 4.37 µM; TGI (HS 578T breast): 28.3 µM; GI50 (HT29 colon): 1.53 µM; TGI (HT29 colon): 3.85 µM; GI50 (IGROV1 ovarian): 4.98 µM; TGI (IGROV1 ovarian): > 100 µM; GI50 (K-562 leukemia): 4.81 µM; TGI (K-562 leukemia): 35.2 µM; GI50 (KM12 colon): 4.15 µM; TGI (KM12 colon): 27.2 µM; GI50 (LOX IMVI melanoma): 2.83 µM; TGI (LOX IMVI melanoma): 13.6 µM; GI50 (M14 melanoma): 4.67 µM; TGI (M14 melanoma): 17.5 µM; GI50 (MALME-3M melanoma): 5.84 µM; TGI (MALME-3M melanoma): 21.7 µM; GI50 (MCF7 breast): 2.78 µM; TGI (MCF7 breast): 15.7 µM; GI50 (MDA-MB-231 breast): 3.1 µM; TGI (MDA-MB-231 breast): 20.4 µM; GI50 (MDA-MB-435): 4.09 µM; TGI (MDA-MB-435): 18.1 µM; GI50 (MOLT-4 leukemia): 4.58 µM; TGI (MOLT-4 leukemia): 33.7 µM; GI50 (NCI-H226 lung): 4.12 µM; TGI (NCI-H226 lung): 26.8 µM; GI50 (NCI-H23 lung): 4.29 µM; TGI (NCI-H23 lung): 21.4 µM; GI50 (NCI-H460 lung): 2.57 µM; TGI (NCI-H460 lung): 9.14 µM; GI50 (NCI-H522 lung): 11.2 µM; TGI (NCI-H522 lung): 35 µM; GI50 (NCI/ADR-RES ovarian): 3.57 µM; TGI (NCI/ADR-RES ovarian): 78.3 µM; GI50 (OVCAR-3 ovarian): 3.62 µM; TGI (OVCAR-3 ovarian): 27.5 µM; GI50 (OVCAR-4 ovarian): 3.25 µM; TGI (OVCAR-4 ovarian): 14 µM; GI50 (OVCAR-5 ovarian): 4.53 µM; TGI (OVCAR-5 ovarian): 46.1 µM; GI50 (OVCAR-8 ovarian): 5.67 µM; TGI (OVCAR-8 ovarian): > 100 µM; GI50 (PC-3 prostate): 4.08 µM; TGI (PC-3 prostate): 85.1 µM; GI50 (RPMI-8226 leukemia): 17 µM; TGI (RPMI-8226 leukemia): 46.5 µM; GI50 (RXF 393 renal): 5.86 µM; TGI (RXF 393 renal): 25 µM; GI50 (SF-268 CNS): 3.91 µM; TGI (SF-268 CNS): 23.9 µM; GI50 (SF-295 CNS): 3.3 µM; TGI (SF-295 CNS): 37.2 µM; GI50 (SF-539 CNS): 3.48 µM; TGI (SF-539 CNS): 14 µM; GI50 (SK-MEL-2 melanoma): 9.7 µM; TGI (SK-MEL-2 melanoma): 31.7 µM; GI50 (SK-MEL-28 melanoma): 13 µM; TGI (SK-MEL-28 melanoma): 26.1 µM; GI50 (SK-MEL-5 melanoma): 4.38 µM; TGI (SK-MEL-5 melanoma): 16.5 µM; GI50 (SK-OV-3 ovarian): 3.98 µM; TGI (SK-OV-3 ovarian): 32.4 µM; GI50 (SN12C renal): 3.82 µM; TGI (SN12C renal): > 100 µM; GI50 (SNB-19 CNS): 5.27 µM; TGI (SNB-19 CNS): 60.1 µM; GI50 (SNB-75 CNS): 2.74 µM; TGI (SNB-75 CNS): 17.4 µM; GI50 (SR leukemia): 2.52 µM; TGI (SR leukemia): 8.21 µM; GI50 (SW-620 colon): 3.43 µM; TGI (SW-620 colon): 41.7 µM; GI50 (T-47D breast): 4.73 µM; TGI (T-47D breast): 29.4 µM; GI50 (TK-10 renal): 3.91 µM; TGI (TK-10 renal): 88 µM; GI50 (U251 CNS): 4.66 µM; TGI (U251 CNS): 76.2 µM; GI50 (UACC-257 melanoma): 10.2 µM; TGI (UACC-257 melanoma): 26.2 µM; GI50 (UO-31 renal): 2.87 µM; TGI (UO-31 renal): > 100 µM
